Source: US7138361B2, “Herbicidal heterocycles” (E. I. du Pont de Nemours and Company, priority 2000, dated 2006)

How the values were obtained:
Format in all cases: in vivo
[1] = system: Surinam grass (Brachiaria decumbens); assay: Test B postemergence; conditions: 13 to 15 days
Method in brief: (§1)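 Preemergence: seeds planted and treated with test chemicals in non-phytotoxic solvent with surfactant; postemergence on plants 2–18 cm (1- to 4-leaf stage). Kept in greenhouse 13–15 days, then visually rated against controls on a 0 (no effect) to 100 (complete control) scale.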

[2] = system: barnyardgrass (Echinochloa crus-galli); assay: Test B postemergence; conditions: 13 to 15 days
Method in brief: as §1

[3] = system: blackgrass (Alopecurus myosuroides); assay: Test B postemergence; conditions: 13 to 15 days
Method in brief: as §1

[4] = system: corn (Zea mays); assay: Test B postemergence; conditions: 13 to 15 days
Method in brief: as §1

[5] = system: giant foxtail (Setaria faberii); assay: Test B postemergence; conditions: 13 to 15 days
Method in brief: as §1

[6] = system: morning glory (Ipomoea hederacea); assay: Test B postemergence; conditions: 13 to 15 days
Method in brief: as §1

[7] = system: pigweed (Amaranthus retroflexus); assay: Test B postemergence; conditions: 13 to 15 days
Method in brief: as §1

[8] = system: velvetleaf (Abutilon theophrasti); assay: Test B postemergence; conditions: 13 to 15 days
Method in brief: as §1

[9] = system: wheat (Triticum aestivum); assay: Test B postemergence; conditions: 13 to 15 days
Method in brief: as §1

[10] = system: Surinam grass (Brachiaria decumbens); assay: Test B preemergence
Method in brief: as §1

[11] = system: barnyardgrass (Echinochloa crus-galli); assay: Test B preemergence
Method in brief: as §1

[12] = system: cocklebur (Xanthium strumarium); assay: Test B preemergence
Method in brief: as §1

[13] = system: corn (Zea mays); assay: Test B preemergence
Method in brief: as §1

[14] = system: crabgrass (Digitaria sanguinalis); assay: Test B preemergence
Method in brief: as §1

[15] = system: giant foxtail (Setaria faberii); assay: Test B preemergence
Method in brief: as §1

[16] = system: lambsquarters (Chenopodium album); assay: Test B preemergence
Method in brief: as §1

[17] = system: morning glory (Ipomoea hederacea); assay: Test B preemergence
Method in brief: as §1

[18] = system: pigweed (Amaranthus retroflexus); assay: Test B preemergence
Method in brief: as §1

[19] = system: rice (Oryza saliva); assay: Test B preemergence
Method in brief: as §1

[20] = system: velvetleaf (Abutilon theophrasti); assay: Test B preemergence
Method in brief: as §1

[21] = system: barnyardgrass (Echinochloa crus-galli); assay: Test C flooded paddy test; conditions: for Barnyardgrass plant response rating: Flooded Paddy, scale 0 to 100, 0 no effect, 100 complete control; for Plant response rating, Barnyardgrass: flooded paddy test, scale 0 to 100 (0 no effect, 100 complete control)
Method in brief: (§2)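 2-leaf-stage plants, flooded paddy; treated; greenhouse 12–14 days; compared with controls by eye; rated 0–100 (0 none, 100 complete control).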

[22] = system: duck salad (Heteranthera limosa); assay: Test C flooded paddy test; conditions: for Ducksalad plant response rating: Flooded Paddy, scale 0 to 100, 0 no effect, 100 complete control; for Plant response rating, Ducksalad: flooded paddy test, scale 0 to 100 (0 no effect, 100 complete control)
Method in brief: as §2

[23] = system: rice (Oryza saliva); assay: Test C flooded paddy test; conditions: for Rice plant response rating: Flooded Paddy, scale 0 to 100, 0 no effect, 100 complete control; for Plant response rating, Rice: flooded paddy test, scale 0 to 100 (0 no effect, 100 complete control)
Method in brief: as §2

[24] = system: smallflower flatsedge (Cyperus difformis); assay: Test C flooded paddy test; conditions: for Flatsedge plant response rating: Flooded Paddy, scale 0 to 100, 0 no effect, 100 complete control; for Plant response rating, Flatsedge: flooded paddy test, scale 0 to 100 (0 no effect, 100 complete control)
Method in brief: as §2

[25] = system: Nightshade; assay: Test C preemergence; conditions: visual evaluation after 12 to 14 days
[26] = system: Sunflower; assay: Test C preemergence; conditions: scale 0 to 100, 0 no effect, 100 complete control
[27] = Rate 125 g/ha, scale 0 (no effect) to 100 (complete control)
[28] = Rate 500 g/ha, scale 0 to 100, 0 is no effect, 100 is complete control
[29] = Preemergence, Rate 500 g/ha, scale 0 to 100, 0 no effect, 100 complete control
[30] = preemergence, Rate 125 g/ha, scale 0 to 100, 0 no effect, 100 complete control
[31] = preemergence, Rate 125 g/ha, scale of 0 to 100 where 0 is no effect and 100 is complete control, 13 to 15 days

SMILES: CC(C)c1ccn(C2SCN(c3cccc(OC(F)F)c3)C2=O)n1 (centres unmarked) [Compound 44]
- Plant response rating, Surinam grass [1, 27]: 0
- Plant response rating, Surinam grass [1, 28]: 0
- Plant response rating, Barnyardgrass [2, 27]: 40
- Plant response rating, Barnyardgrass [2, 28]: 100
- Plant response rating, Blackgrass [3, 27]: 0
- Plant response rating, Blackgrass [3, 28]: 0
- Plant response rating, Corn [4, 27]: 0
- Plant response rating, Corn [4, 28]: 20
- Plant response rating, Foxtail, Giant [5, 27]: 0
- Plant response rating, Foxtail, Giant [5, 28]: 60
- Plant response rating, Morningglory [6, 27]: 0
- Plant response rating, Morningglory [6, 28]: 0
- Plant response rating, Pigweed [7, 27]: 0
- Plant response rating, Pigweed [7, 28]: 0
- Plant response rating, Velvetleaf [8, 27]: 0
- Plant response rating, Velvetleaf [8, 28]: 0
- Plant response rating, Wheat [9, 27]: 0
- Plant response rating, Wheat [9, 28]: 0
- Plant response rating, Surinam grass [10, 29]: 100
- Plant response rating, Surinam grass [10, 30]: 0
- Plant response rating, Barnyardgrass [11, 29]: 100
- Plant response rating, Barnyardgrass [11, 30]: 80
- Plant response rating, Cocklebur [12, 30]: 0
- Plant response rating, Corn [13, 29]: 20
- Plant response rating, Corn [13, 30]: 0
- Plant response rating, Crabgrass [14, 29]: 100
- Plant response rating, Crabgrass [14, 30]: 0
- Plant response rating, Foxtail, Giant [15, 29]: 100
- Plant response rating, Foxtail, Giant [15, 30]: 10
- Plant response rating, Lambsquarters [16, 29]: 100
- Plant response rating, Lambsquarters [16, 30]: 100
- Plant response rating, Morningglory [17, 29]: 0
- Plant response rating, Pigweed [18, 29]: 100
- Plant response rating, Rice [19, 29]: 100
- Plant response rating, Velvetleaf [20, 29]: 0
- Barnyardgrass plant response rating ([21]; Rate 250 g/ha): 100
- Barnyardgrass plant response rating ([21]; Rate 500 g/ha): 100
- Plant response rating, Barnyardgrass ([21]; Rate 62 g/ha): 90
- Plant response rating, Barnyardgrass ([21]; Rate 125 g/ha): 100
- Ducksalad plant response rating ([22]; Rate 250 g/ha): 100
- Ducksalad plant response rating ([22]; Rate 500 g/ha): 100
- Plant response rating, Ducksalad ([22]; Rate 62 g/ha): 50
- Plant response rating, Ducksalad ([22]; Rate 125 g/ha): 90
- Rice plant response rating ([23]; Rate 250 g/ha): 90
- Rice plant response rating ([23]; Rate 500 g/ha): 90
- Plant response rating, Rice ([23]; Rate 62 g/ha): 80
- Plant response rating, Rice ([23]; Rate 125 g/ha): 80
- Flatsedge plant response rating ([24]; Rate 250 g/ha): 100
- Flatsedge plant response rating ([24]; Rate 500 g/ha): 100
- Plant response rating, Flatsedge ([24]; Rate 62 g/ha): 90
- Plant response rating, Flatsedge ([24]; Rate 125 g/ha): 100
- Plant response rating (0 to 100), Nightshade ([25]; Rate 250 g/ha): 0
- Plant response rating, Sunflower ([26]; Rate 125 g/ha): 0

SMILES: CCC(CC)c1ccn(C2CCN(c3cccc(OC)c3)C2=O)n1 (centres unmarked) [Compound 96]
- Plant response rating, Surinam grass [1, 27]: 0
- Plant response rating, Surinam grass [1, 28]: 0
- Plant response rating, Barnyardgrass [2, 27]: 0
- Plant response rating, Barnyardgrass [2, 28]: 90
- Plant response rating, Blackgrass [3, 27]: 0
- Plant response rating, Blackgrass [3, 28]: 0
- Plant response rating, Corn [4, 27]: 0
- Plant response rating, Corn [4, 28]: 0
- Plant response rating, Foxtail, Giant [5, 27]: 0
- Plant response rating, Foxtail, Giant [5, 28]: 40
- Plant response rating, Morningglory [6, 28]: 50
- Plant response rating, Pigweed [7, 28]: 90
- Plant response rating, Velvetleaf [8, 28]: 10
- Plant response rating, Wheat [9, 28]: 0
- Plant response rating, Surinam grass [10, 29]: 80
- Plant response rating, Surinam grass [10, 31]: 50
- Plant response rating, Barnyardgrass [11, 29]: 100
- Plant response rating, Barnyardgrass [11, 31]: 100
- Plant response rating, Cocklebur [12, 29]: 30
- Plant response rating, Cocklebur [12, 31]: 20
- Plant response rating, Corn [13, 29]: 20
- Plant response rating, Corn [13, 31]: 0
- Plant response rating, Crabgrass [14, 29]: 100
- Plant response rating, Crabgrass [14, 31]: 100
- Plant response rating, Foxtail, Giant [15, 29]: 100
- Plant response rating, Foxtail, Giant [15, 31]: 100
- Plant response rating, Lambsquarters [16, 29]: 100
- Plant response rating, Lambsquarters [16, 31]: 100
- Plant response rating, Morningglory [17, 29]: 80
- Plant response rating, Morningglory [17, 31]: 0
- Plant response rating, Pigweed [18, 29]: 100
- Plant response rating, Pigweed [18, 31]: 100
- Plant response rating, Rice [19, 29]: 100
- Plant response rating, Rice [19, 31]: 70
- Plant response rating, Velvetleaf [20, 29]: 50
- Plant response rating, Velvetleaf [20, 31]: 0
- Barnyardgrass plant response rating ([21]; Rate 250 g/ha): 100
- Barnyardgrass plant response rating ([21]; Rate 500 g/ha): 100
- Plant response rating, Barnyardgrass ([21]; Rate 62 g/ha): 80
- Plant response rating, Barnyardgrass ([21]; Rate 125 g/ha): 80
- Ducksalad plant response rating ([22]; Rate 250 g/ha): 100
- Ducksalad plant response rating ([22]; Rate 500 g/ha): 100
- Plant response rating, Ducksalad ([22]; Rate 62 g/ha): 80
- Plant response rating, Ducksalad ([22]; Rate 125 g/ha): 90
- Rice plant response rating ([23]; Rate 250 g/ha): 50
- Rice plant response rating ([23]; Rate 500 g/ha): 60
- Plant response rating, Rice ([23]; Rate 62 g/ha): 0
- Plant response rating, Rice ([23]; Rate 125 g/ha): 0
- Flatsedge plant response rating ([24]; Rate 250 g/ha): 100
- Flatsedge plant response rating ([24]; Rate 500 g/ha): 100
- Plant response rating, Flatsedge ([24]; Rate 62 g/ha): 90
- Plant response rating, Flatsedge ([24]; Rate 125 g/ha): 90
- Plant response rating (0 to 100), Nightshade ([25]; Rate 500 g/ha): 80
- Plant response rating, Sunflower ([26]; Rate 250 g/ha): 50
